Experimental data published in patent US20250332300A1 (priority 2024, published 2025).
Where a name gives a salt, the structure may show the parent alone. Read-outs that look alike come from different tables or passages of the source. Starred links: 1 amine or outer side, 2 acyl side, 3 side chain; linkers in the order of their positions; H or OH if unused. Positions of bridges follow the written chain, without caps; N, C: chain ends. Non-standard residues stand in square brackets, D forms with d. Residues, ends and D or L forms follow the SMILES beside them. Trp(5-OH) = N[C@@H](Cc1c[nH]c2ccc(O)cc12)C(=O)O; NMePhe(4-F) = CN[C@@H](Cc1ccc(F)cc1)C(=O)O; NMehPhe = CN[C@@H](CCc1ccccc1)C(=O)O; NMeAoc(2) = CCCCCC[C@H](NC)C(=O)O; NMeAhp(2) = CCCCC[C@H](NC)C(=O)O; Aad = N[C@@H](CCCC(=O)O)C(=O)O; Gly(cPr) = N[C@H](C(=O)O)C1CC1; NMeK = CN[C@@H](CCCCN)C(=O)O; NMeDap = CN[C@@H](CN)C(=O)O; NMeC = CN[C@@H](CS)C(=O)O; NMeS = CN[C@@H](CO)C(=O)O; Dap = NC[C@H](N)C(=O)O; X5 = O=C(C[*:2])[*:1]

Legend:
Type in all cases: binding
[1] = target: human HER2 (23-652) (Homo sapiens, UniProt P04626); assay: Surface plasmon resonance (SPR) for assessment of peptide affinity, human HER2; set-up: towards human HER2 (23-652) and mouse HER2 (23-653); made in house
Outline: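 Binding kinetics fitted from sensorgrams with 280 s peptide association then 3000 s dissociation (30 uL/min), using HER2 (23-652) either directly immobilized (SA/CM5) or anti-Fc-captured; 3 M magnesium chloride used for regeneration.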

[2] = target: T1, mouse HER2 (23-653) (Mus musculus, UniProt P70424); assay: TR-FRET competition assay for peptide potency, mouse HER2; set-up: mouse HER2 (23-653) using a Cy5 labeled peptide as a probe; made in house; host or cells: mammalian cells; conditions: 0.1 nM mouse HER2, 24 h incubation
[3] = target: T1, mouse HER2 (23-653); assay: Surface plasmon resonance (SPR) for assessment of peptide affinity, mouse HER2; set-up: mouse HER2 (23-653) using a Cy5 labeled peptide as a probe; made in house
Text: Each protein was immobilized either onto a SA sensorchip (Cytiva, BR-1005-31) or CM5 sensorchip (Cytiva, BR-1005-30) to a density of 800-2000 RU.

[4] = SPR, human HER2 extracellular domain, 25° C., 1:1 binding model, read-out: huHER2-SPR-ONC KD
[5] = TR-FRET competition with Cy5 labeled peptide probe, read-out: moHER2 TR-FRET IC50
[6] = SPR, mouse HER2 extracellular domain, 25° C., 1:1 binding model, read-out: moHER2-SPR-ONC KD
[7] = moHER2 TR-FRET IC50, TR-FRET competition with Cy5 labeled peptide probe

Compound	Kd [1, 4] [nM]	IC50 [2, 5] [nM]	Kd [3, 6] [nM]	Kd [1] [nM]	IC50 [2, 7] [nM]	Kd [3] [nM]
CC(=O)NCCCC[C@H]1C(=O)N[C@@H](Cc2c[nH]c3ccc(O)cc23)C(=O)N[C@@H](Cc2c[nH]c3ccccc23)C(=O)N[C@@H](C2CC2)C(=O)N(C)[C@H](C(=O)N(C)[C@@H](Cc2ccc(F)cc2)C(N)=O)CSCC(=O)NC[C@H](NC(C)=O)C(=O)N[C@@H](Cc2ccc(O)cc2)C(=O)N[C@@H](CO)C(=O)N(C)[C@@H](CCc2ccccc2)C(=O)N1C [Example A51, (3R,6S,9S,12S,15S,18S,21S,24S,27S)-9-((1H-indol-3-yl)methyl)-27-acetamido-15-(4-acetamidobutyl)-N-((S)-1-amino-3-(4-fluorophenyl)-1-oxopropan-2-y1)-6-cyclopropyl-12-((5-hydroxy-1H-indol-3-yl)methyl)-24-(4-hydroxybenzyl)-21-(hydroxymethyl)-N,4,16,19-tetramethyl-5,8,11,14,17,20,23,26,30-nonaoxo-18-phenethyl-1-thia-4,7,10,13,16,19,22,25,29-nonaazacyclohentriacontane-3-carboxamide] (Ac-[Dap]YS[NMehPhe][NMeK](Ac)[Trp(5-OH)]W[Gly(cPr)][NMeC][NMePhe(4-F)]-NH2; linker 1-9 via X5)	7.3	15	10	–	–	–
CCCCC[C@H]1C(=O)N(C)[C@@H](CCCCNC(C)=O)C(=O)N[C@@H](Cc2c[nH]c3ccc(O)cc23)C(=O)N[C@@H](Cc2c[nH]c3ccccc23)C(=O)N[C@@H](C2CC2)C(=O)N(C)[C@H](C(=O)N(C)[C@@H](Cc2ccc(F)cc2)C(N)=O)CNC(=O)CCC[C@H](NC(C)=O)C(=O)N[C@@H](Cc2ccc(O)cc2)C(=O)N[C@@H](CO)C(=O)N1C [Example A14, (3S,6S,9S,12S,15S,18S,21S,24S,27S)-9-((1H-indol-3-yl)methyl)-27-acetamido-15-(4-acetamidobutyl)-N-((S)-1-amino-3-(4-fluorophenyl)-1-oxopropan-2-yl)-6-cyclopropyl-12-((5-hydroxy-1H-indol-3-yl)methyl)-24-(4-hydroxybenzyl)-21-(hydroxymethyl)-N,4,16,19-tetramethyl-5,8,11,14,17,20,23,26,31-nonaoxo-18-pentyl-1,4,7,10,13,16,19,22,25-nonaazacyclohentriacontane-3-carboxamide] (Ac-[Aad]YS[NMeAhp(2)][NMeK](Ac)[Trp(5-OH)]W[Gly(cPr)][NMeDap][NMePhe(4-F)]-NH2; lactam 1-9)	1.3	3.7	1.2	–	–	–
CN1C(=O)[C@H](CO)NC(=O)[C@H](Cc2ccc(O)cc2)NC(=O)[C@@H](N)CCC(=O)NC[C@@H](C(=O)N(C)[C@@H](Cc2ccc(F)cc2)C(N)=O)N(C)C(=O)[C@H](C2CC2)NC(=O)[C@H](Cc2c[nH]c3ccccc23)NC(=O)[C@H](Cc2c[nH]c3ccc(O)cc23)NC(=O)[C@H](CCCCNC(=O)C(F)(F)F)N(C)C(=O)[C@@H]1CCc1ccccc1 [Example A33, (3S,6S,9S,12S,15S,18S,21S,24S,27S)-9-((1H-indol-3-yl)methyl)-27-amino-N-((S)-1-amino-3-(4-fluorophenyl)-1-oxopropan-2-yl)-6-cyclopropyl-12-((5-hydroxy-1H-indol-3-yl)methyl)-24-(4-hydroxybenzyl)-21-(hydroxymethyl)-N,4,16,19-tetramethyl-5,8,11,14,17,20,23,26,30-nonaoxo-18-phenethyl-15-(4-(2,2,2-trifluoroacetamido)butyl)-1,4,7,10,13,16,19,22,25-nonaazacyclotriacontane-3-carboxamide TFA salt]	–	–	–	15	32	23
CC(=O)N[C@H]1CCCC(=O)NC[C@@H](C(=O)N(C)[C@@H](Cc2ccc(F)cc2)C(N)=O)N(C)C(=O)[C@H](C2CC2)NC(=O)[C@H](Cc2c[nH]c3ccccc23)NC(=O)[C@H](Cc2c[nH]c3ccc(O)cc23)NC(=O)[C@H](CO)N(C)C(=O)[C@H](CCc2ccccc2)N(C)C(=O)[C@H](CO)NC(=O)[C@H](Cc2ccc(O)cc2)NC1=O [Example A29, (3S,6S,9S,12S,15S,18S,21S,24S,27S)-9-((1H-indol-3-yl)methyl)-27-acetamido-N-((S)-1-amino-3-(4-fluorophenyl)-1-oxopropan-2-yl)-6-cyclopropyl-12-((5-hydroxy-1H-indol-3-yl)methyl)-24-(4-hydroxybenzyl)-15,21-bis(hydroxymethyl)-N,4,16,19-tetramethyl-5,8,11,14,17,20,23,26,31-nonaoxo-18-phenethyl-1,4,7,10,13,16,19,22,25-nonaazacyclohentriacontane-3-carboxamide] (Ac-[Aad]YS[NMehPhe][NMeS][Trp(5-OH)]W[Gly(cPr)][NMeDap][NMePhe(4-F)]-NH2; lactam 1-9)	30	53	27	–	–	–
CCCCCC[C@H]1C(=O)N(C)[C@@H](CCCCNC(C)=O)C(=O)N[C@@H](Cc2c[nH]c3ccc(O)cc23)C(=O)N[C@@H](Cc2c[nH]c3ccccc23)C(=O)N[C@@H](C2CC2)C(=O)N(C)[C@H](C(=O)N(C)[C@@H](Cc2ccc(F)cc2)C(N)=O)CNC(=O)CCC[C@H](NC(C)=O)C(=O)N[C@@H](Cc2ccc(O)cc2)C(=O)N[C@@H](CO)C(=O)N1C [Example A20, (3S,6S,9S,12S,15S,18S,21S,24S,27S)-9-((1H-indol-3-yl)methyl)-27-acetamido-15-(4-acetamidobutyl)-N-((S)-1-amino-3-(4-fluorophenyl)-1-oxopropan-2-yl)-6-cyclopropyl-18-hexyl-12-((5-hydroxy-1H-indol-3-yl)methyl)-24-(4-hydroxybenzyl)-21-(hydroxymethyl)-N,4,16,19-tetramethyl-5,8,11,14,17,20,23,26,31-nonaoxo-1,4,7,10,13,16,19,22,25-nonaazacyclohentriacontane-3-carboxamide] (Ac-[Aad]YS[NMeAoc(2)][NMeK](Ac)[Trp(5-OH)]W[Gly(cPr)][NMeDap][NMePhe(4-F)]-NH2; lactam 1-9)	–	4.7	2.5	–	–	–
CC(=O)NCCCC[C@H]1C(=O)N[C@@H](Cc2c[nH]c3ccc(O)cc23)C(=O)N[C@@H](Cc2c[nH]c3ccccc23)C(=O)N[C@@H]([C@H](C)O)C(=O)N(C)[C@H](C(=O)N(C)[C@@H](Cc2ccc(F)cc2)C(=O)N[C@@H](CCCCNC(=O)N2CCN(CC(=O)O)CC2)C(N)=O)CNC(=O)CC[C@H](NC(=O)CN2CCN(CC(=O)O)CCN(CC(=O)O)CCN(CC(=O)O)CC2)C(=O)N[C@@H](Cc2ccc(O)cc2)C(=O)N[C@@H](CO)C(=O)N(C)[C@@H](CCc2ccccc2)C(=O)N1C [Example C27]	–	57	54	–	–	–
CC(=O)NCCCC[C@H]1C(=O)N[C@@H](Cc2c[nH]c3ccc(O)cc23)C(=O)N[C@@H](Cc2c[nH]c3ccccc23)C(=O)N[C@@H](C2CC2)C(=O)N(C)[C@H](C(=O)N(C)[C@@H](Cc2ccc(F)cc2)C(=O)N[C@@H](CCCCNC(=O)CN2CCN(CC(=O)O)CCN(CC(=O)O)CCN(CC(=O)O)CC2)C(N)=O)CNC(=O)CCC[C@H](NC(C)=O)C(=O)N[C@H](Cc2ccc(O)cc2)C(=O)N[C@H](CO)C(=O)N(C)[C@@H](CCc2ccccc2)C(=O)N1C [Example C36]	107	396	472	–	–	–
CC(=O)NCCCC[C@H]1C(=O)N[C@@H](Cc2c[nH]c3ccc(O)cc23)C(=O)N[C@@H](Cc2c[nH]c3ccccc23)C(=O)N[C@@H](C2CC2)C(=O)N(C)[C@H](C(=O)N(C)[C@@H](Cc2ccc(F)cc2)C(=O)N[C@@H](CCCCNC(=O)CC[C@H](C(=O)O)N2CCN(CC(=O)O)CCN(CC(=O)O)CCN(CC(=O)O)CC2)C(N)=O)CNC(=O)CCC[C@H](NC(C)=O)C(=O)N[C@@H](Cc2ccc(O)cc2)C(=O)N[C@@H](CO)C(=O)N(C)[C@@H](CCc2ccccc2)C(=O)N1C [Example C33]	–	–	< 0.1	–	–	–
CC(=O)N[C@H]1CCCC(=O)NC[C@@H](C(=O)N(C)[C@@H](Cc2ccc(F)cc2)C(=O)N[C@@H](CCCCNC(=O)CN2CCN(CC(=O)O)CCN(CC(=O)O)CCN(CC(=O)O)CC2)C(N)=O)N(C)C(=O)[C@H]([C@H](C)O)NC(=O)[C@H](Cc2c[nH]c3ccccc23)NC(=O)[C@H](Cc2c[nH]c3ccc(O)cc23)NC(=O)[C@H](CCCCNC(=O)CO)N(C)C(=O)[C@H](CCc2ccccc2)N(C)C(=O)[C@H](CO)NC(=O)[C@H](Cc2ccc(O)cc2)NC1=O [Example C21]	0.3	–	0.7	–	–	–
CC(=O)NCCCC[C@H]1C(=O)N[C@@H](Cc2c[nH]c3ccc(O)cc23)C(=O)N[C@@H](Cc2c[nH]c3ccccc23)C(=O)N[C@@H](C2CC2)C(=O)N(C)[C@H](C(=O)N(C)[C@@H](Cc2ccc(F)cc2)C(N)=O)CNC(=O)CC[C@H](N)C(=O)N[C@@H](Cc2ccc(O)cc2)C(=O)N[C@@H](CO)C(=O)N(C)[C@@H](CCc2ccccc2)C(=O)N1C [Example A32, (3S,6S,9S,12S,15S,18S,21S,24S,27S)-9-((1H-indol-3-yl)methyl)-15-(4-acetamidobutyl)-27-amino-N-((S)-1-amino-3-(4-fluorophenyl)-1-oxopropan-2-yl)-6-cyclopropyl-12-((5-hydroxy-1H-indol-3-yl)methyl)-24-(4-hydroxybenzyl)-21-(hydroxymethyl)-N,4,16,19-tetramethyl-5,8,11,14,17,20,23,26,30-nonaoxo-18-phenethyl-1,4,7,10,13,16,19,22,25-nonaazacyclotriacontane-3-carboxamide TFA salt]	–	–	–	–	2.6	2.2
